In the NIST ThermoML archive (doi:10.1016/j.jct.2007.09.008):
Numbers after ± are expanded uncertainties.

Settings: Liquid, Closed cell (Static) method

Structure (SMILES)	vapor or sublimation pressure (283.1 K)	vapor or sublimation pressure (293.1 K)	vapor or sublimation pressure (303.1 K)	vapor or sublimation pressure (312.9 K)	vapor or sublimation pressure (323.3 K)	vapor or sublimation pressure (333.3 K)	vapor or sublimation pressure (343.1 K)	vapor or sublimation pressure (283.2 K)	vapor or sublimation pressure (292.9 K)	vapor or sublimation pressure (302.9 K)	vapor or sublimation pressure (313.1 K)	vapor or sublimation pressure (323.1 K)	vapor or sublimation pressure (333.2 K)	vapor or sublimation pressure (343.2 K)	vapor or sublimation pressure (293.2 K)	vapor or sublimation pressure (323.2 K)	vapor or sublimation pressure (333.1 K)
CCC1CCC(=O)O1 (stereo unspecified) [2(3H)-furanone, 5-ethyldihydro-]	0.075 ± 0.008 kPa	0.128 ± 0.008 kPa	0.221 ± 0.008 kPa	0.356 ± 0.016 kPa	0.564 ± 0.019 kPa	0.862 ± 0.027 kPa	1.367 ± 0.1 kPa										
O=C1CCCCCO1 [6-hexanolactone]								0.045 ± 0.002 kPa	0.079 ± 0.003 kPa	0.131 ± 0.006 kPa	0.213 ± 0.008 kPa	0.339 ± 0.012 kPa	0.518 ± 0.021 kPa	0.768 ± 0.031 kPa			
CC1CCCC(=O)O1 (stereo unspecified) [2H-pyran-2-one, tetrahydro-6-methyl-]	0.005 ± 0.002 kPa		0.025 ± 0.016 kPa				0.354 ± 0.02 kPa				0.054 ± 0.004 kPa				0.011 ± 0.006 kPa	0.103 ± 0.006 kPa	0.191 ± 0.01 kPa
